The values below come from US20100029657A1, “Bridged, Bicyclic Heterocyclic or Spiro Bicyclic Heterocyclic Derivatives of Pyrazolo[1, 5-A]Pyrimidines, Methods for Preparation and Uses Thereof” (Wyeth, priority 2008, published 2010).

For this test, the target named is T1, Flag/GST-tagged recombinant human B-Raf (Homo sapiens, UniProt P15056).
T1 construct: Flag; GST; made in house; host or cells: Sf9 insect cells (B-Raf); E. coli (MEK1-GST)
Briefly: B-Raf kinase assay (phosphorylation of GST-MEK1, phospho-MEK1 antibody/Europium detection). The format is biochemical. The conditions noted are these: B-Raf IC50 Data for compounds of Formula A; read-out: Mean IC50. A digest of the protocol: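 Active B-Raf (0.2 nM) phosphorylates GST-MEK1 in 20 mM MOPS pH 7.2 buffer with DTT, vanadate and 0.01% Triton X-100. The Mg/ATP cocktail (200 μM ATP, 40 mM MgCl2) is added, then incubation runs 45 min at RT. Product is captured on anti-GST plates and detected by anti-phospho-MEK1 plus Europium-anti-rabbit fluorescence, giving % inhibition per concentration.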

T1 sequence (P15056 whole entry): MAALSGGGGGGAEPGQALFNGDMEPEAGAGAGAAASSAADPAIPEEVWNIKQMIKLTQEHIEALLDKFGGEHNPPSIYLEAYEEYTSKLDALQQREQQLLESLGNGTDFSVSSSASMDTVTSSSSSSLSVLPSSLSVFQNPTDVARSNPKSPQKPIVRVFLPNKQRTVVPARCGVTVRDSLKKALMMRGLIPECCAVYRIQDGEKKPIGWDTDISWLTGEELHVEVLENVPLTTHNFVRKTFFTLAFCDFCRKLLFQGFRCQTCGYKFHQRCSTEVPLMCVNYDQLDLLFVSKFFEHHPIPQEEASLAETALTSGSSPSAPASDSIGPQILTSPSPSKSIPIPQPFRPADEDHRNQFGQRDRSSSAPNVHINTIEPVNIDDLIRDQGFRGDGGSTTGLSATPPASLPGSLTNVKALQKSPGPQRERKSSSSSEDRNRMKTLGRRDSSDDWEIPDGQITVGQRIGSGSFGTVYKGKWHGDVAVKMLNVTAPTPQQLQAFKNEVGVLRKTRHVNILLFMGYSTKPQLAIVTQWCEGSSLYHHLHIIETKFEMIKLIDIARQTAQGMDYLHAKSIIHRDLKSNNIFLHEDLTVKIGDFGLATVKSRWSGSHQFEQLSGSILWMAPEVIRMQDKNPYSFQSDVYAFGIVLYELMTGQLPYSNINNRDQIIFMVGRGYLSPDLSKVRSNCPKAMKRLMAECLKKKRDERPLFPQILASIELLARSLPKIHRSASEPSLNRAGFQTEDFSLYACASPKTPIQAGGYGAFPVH

The term IC50 denotes the concentration needed to halve the response being measured. In the case of `CC(C)(C)OC(=O)N1C[C@@H]2C[C@H]1CN2Cc1cc(-c2ccnc3c(-c4cccc5[nH]ncc45)c(-c4ccncc4)nn23)co1` [Example 194, tert-butyl (1S,4S)-5-({4-[3-(1H-indazol-4-yl)-2-pyridin-4-ylpyrazolo[1,5-a]pyrimidin-7-yl]furan-2-yl}methyl)-2,5-diazabicyclo[2.2.1]heptane-2-carboxylate], the IC50 was 9.1 nM. As for `c1cc(-c2c(-c3ccncc3)nn3c(-c4coc(CN5C[C@@H]6C[C@H]5CN6)c4)ccnc23)c2cn[nH]c2c1` [Example 195, 7-{5-[(1S,4S)-2,5-diazabicyclo[2.2.1]hept-2-ylmethyl]furan-3-yl}-3-(1H-indazol-4-yl)-2-pyridin-4-ylpyrazolo[1,5-a]pyrimidine], the figure is 13 nM; as for `CC(C)(C)OC(=O)N1C[C@@H]2C[C@H]1CN2Cc1ccc(-c2ccnc3c(-c4cccc5[nH]ncc45)c(-c4ccncc4)nn23)s1` [Example 196, tert-butyl (1S,4S)-5-({5-[3-(1H-indazol-4-yl)-2-pyridin-4-ylpyrazolo[1,5-a]pyrimidin-7-yl]thiophen-2-yl}methyl)-2,5-diazabicyclo[2.2.1]heptane-2-carboxylate], 11.5 nM; as for `c1cc(-c2c(-c3ccncc3)nn3c(-c4ccc(CN5C[C@@H]6C[C@H]5CO6)s4)ccnc23)c2cn[nH]c2c1` [Example 197, 3-(1H-indazol-4-yl)-7-{5-[(1S,4S)-2-oxa-5-azabicyclo[2.2.1]hept-5-ylmethyl]thiophen-2-yl}-2-pyridin-4-ylpyrazolo[1,5-a]pyrimidine], 5.7 nM. In the case of `c1cc(-c2c(-c3ccncc3)nn3c(-c4ccc(CN5C[C@@H]6C[C@H]5CN6)s4)ccnc23)c2cn[nH]c2c1` [Example 198, 7-{5-[(1S,4S)-2,5-diazabicyclo[2.2.1]hept-2-ylmethyl]thiophen-2-yl}-3-(1H-indazol-4-yl)-2-pyridin-4-ylpyrazolo[1,5-a]pyrimidine], the IC50 is 3.6 nM. For `CCOC(=O)N1[C@@H]2CC[C@H]1C[C@@H](c1c(C)cnc3c(-c4cccc5[nH]ncc45)c(-c4ccncc4)nn13)C2` [Example 199, ethyl (3-endo)-3-[3-(1H-indazol-4-yl)-6-methyl-2-pyridin-4-ylpyrazolo[1,5-a]pyrimidin-7-yl]-8-azabicyclo[3.2.1]octane-8-carboxylate], the IC50 stood at 5.5 nM. As to `c1cc(-c2c(-c3ccncc3)nn3c(-c4ccc(N5CC6CCC(C5)O6)nc4)ccnc23)c2cn[nH]c2c1` [Example 200, 3-(1H-indazol-4-yl)-7-[6-(8-oxa-3-azabicyclo[3.2.1]oct-3-yl)pyridin-3-yl]-2-pyridin-4-ylpyrazolo[1,5-a]pyrimidine], the IC50 stood at 5.8 nM. `c1cc(-c2c(-c3ccncc3)nn3c(-c4ccc(N5C[C@@H]6C[C@H]5CO6)nc4)ccnc23)c2cn[nH]c2c1` [Example 201, 3-(1H-indazol-4-yl)-7-{6-[(1S,4S)-2-oxa-5-azabicyclo[2.2.1]hept-5-yl]pyridin-3-yl}-2-pyridin-4-ylpyrazolo[1,5-a]pyrimidine]: the IC50 turned out to be 8.4 nM. As for `CC(C)(C)OC(=O)N1C[C@@H]2C[C@H]1CN2Cc1cccc(-c2ccnc3c(-c4cccc5[nH]ncc45)c(-c4ccncc4)nn23)c1` [Example 202, tert-butyl (1S,4S)-5-{3-[3-(1H-indazol-4-yl)-2-pyridin-4-ylpyrazolo[1,5-a]pyrimidin-7-yl]benzyl}-2,5-diazabicyclo[2.2.1]heptane-2-carboxylate], the figure is greater than 100 nM; as for `CC(C)(C)OC(=O)N1C[C@@H]2C[C@H]1CN2Cc1ccc(-c2ccnc3c(-c4cccc5[nH]ncc45)c(-c4ccncc4)nn23)cc1` [Example 203, tert-butyl (1S,4S)-5-{4-[3-(1H-indazol-4-yl)-2-pyridin-4-ylpyrazolo[1,5-a]pyrimidin-7-yl]benzyl}-2,5-diazabicyclo[2.2.1]heptane-2-carboxylate], 12 nM; as for `c1cc(-c2c(-c3ccncc3)nn3c(-c4ccc(CN5C[C@@H]6C[C@H]5CO6)cc4)ccnc23)c2cn[nH]c2c1` [Example 204, 3-(1H-indazol-4-yl)-7-{4-[(1S,4S)-2-oxa-5-azabicyclo[2.2.1]hept-5-ylmethyl]phenyl}-2-pyridin-4-ylpyrazolo[1,5-a]pyrimidine], 10 nM. As for `Fc1cc(CN2C[C@@H]3C[C@H]2CN3)ccc1-c1ccnc2c(-c3cccc4[nH]ncc34)c(-c3ccncc3)nn12` [Example 205, 7-{4-[(1S,4S)-2,5-diazabicyclo[2.2.1]hept-2-ylmethyl]-2-fluorophenyl}-3-(1H-indazol-4-yl)-2-pyridin-4-ylpyrazolo[1,5-a]pyrimidine], the figure is 0.35 nM; as for `Fc1cc(CN2C[C@@H]3C[C@H]2CO3)ccc1-c1ccnc2c(-c3cccc4[nH]ncc34)c(-c3ccncc3)nn12` [Example 206, 7-{2-fluoro-4-[(1S,4S)-2-oxa-5-azabicyclo[2.2.1]hept-5-ylmethyl]phenyl}-3-(1H-indazol-4-yl)-2-pyridin-4-ylpyrazolo[1,5-a]pyrimidine], 1.5 nM. `Fc1cc(CN2C[C@H]3C[C@@H]2CO3)ccc1-c1ccnc2c(-c3cccc4[nH]ncc34)c(-c3ccncc3)nn12` [Example 207, 7-{2-fluoro-4-[(1R,4R)-2-oxa-5-azabicyclo[2.2.1]hept-5-ylmethyl]phenyl}-3-(1H-indazol-4-yl)-2-pyridin-4-ylpyrazolo[1,5-a]pyrimidine]: the IC50 was found to be 0.5 nM. For `c1cc(CN2C[C@@H]3C[C@H]2CN3)cc(-c2ccnc3c(-c4cccc5[nH]ncc45)c(-c4ccncc4)nn23)c1` [Example 208, 7-{3-[(1S,4S)-2,5-diazabicyclo[2.2.1]hept-2-ylmethyl]phenyl}-3-(1H-indazol-4-yl)-2-pyridin-4-ylpyrazolo[1,5-a]pyrimidine], the IC50 was 42 nM. As for `c1cc(-c2c(-c3ccncc3)nn3c(-c4ccc(CN5C[C@@H]6C[C@H]5CN6)cc4)ccnc23)c2cn[nH]c2c1` [Example 209, 7-{4-[(1S,4S)-2,5-diazabicyclo[2.2.1]hept-2-ylmethyl]phenyl}-3-(1H-indazol-4-yl)-2-pyridin-4-ylpyrazolo[1,5-a]pyrimidine], the figure is 0.6 nM; as for `Fc1cc(CN2C3COCC2COC3)ccc1-c1ccnc2c(-c3cccc4[nH]ncc34)c(-c3ccncc3)nn12` [Example 210, 9-{3-fluoro-4-[3-(1H-indazol-4-yl)-2-pyridin-4-ylpyrazolo[1,5-a]pyrimidin-7-yl]benzyl}-3,7-dioxa-9-azabicyclo[3.3.1]nonane], 0.7 nM. As for “Ethyl 3-[3-(2-oxo-2,3-dihydro-1H-pyrrolo[2,3-b]pyridin-4-yl)-2-pyridin-4-ylpyrazolo[1,5-a]pyrimidin-7-yl-8-azabicyclo[3.2.1]octane-8-carboxylate [Example 86]”, the figure is 270 nM.
